Results taken from US9504669B2, “Spliceostatin analogs and methods for their preparation” (PFIZER INC., priority 2012, dated 2016).

How the values were obtained:
[1] = system: N87 (gastric cancer) cells; assay: In vitro cell assay (MTS cell viability), N87; assay type: cell-based; settings: free compounds (natural products and synthetic analogs), cell viability 96 hours after treatment
Protocol: (§1) Target expressing (BT474 (breast cancer), N87 (gastric cancer), HCC1954 (breast cancer), MDA-MB-361-DYT2 (breast cancer)) or non-expressing (MDA-MB-468) cells were seeded in 96-well cell culture plates for 24 hours before treatment. Cells were treated with 3-fold serially diluted antibody-drug conjugates or free compounds (i.e., no antibody conjugated to the drug) in duplicate at 10 concentrations. Cell viability was determined by CellTiter 96® AQueous One Solution Cell Proliferation MTS Assay (Promega, Madison Wis.) 96 hours after treatment. Relative cell viability was determined as percentage of untreated control. IC50 values were calculated using a four parameter logistic model #203 with XLfit v4.2 (IDBS, Guildford, Surry, UK). The potency ranged upward from 0.0002 nm. Similar procedures and techniques were employed.

[2] = system: MDA-MB-361-DYT2 (breast cancer) cells; assay: In vitro cell assay (MTS cell viability), MDA-MB-361-DYT2; assay type: cell-based; settings: free compounds (natural products and synthetic analogs), cell viability 96 hours after treatment
Protocol: as §1

Row | Compound | IC50 ([1]; 96 h) [nM] | IC50 ([2]; 96 h) [nM] | IC50 [1] [nM] | IC50 [2] [nM]
1 | CNN(C)C(=O)C[C@@H]1C[C@@]2(CO2)[C@H](O)[C@@H](/C=C/C(C)=C/C[C@@H]2O[C@H](C)[C@H](NC(=O)/C=C\[C@H](C)OC(C)=O)C[C@@H]2C)O1 [#B145, (2S,3Z)-5-({(2R,3R,5S,6S)-6-[(2E,4E)-5-{(3R,4R,5R,7S)-7-[2-(1,2-dimethylhydrazinyl)-2-oxoethyl]-4-hydroxy-1,6-dioxaspiro[2.5]oct-5-yl}-3-methylpenta-2,4-dien-1-yl]-2,5-dimethyltetrahydro-2H-pyran-3-yl}amino)-5-oxopent-3-en-2-yl acetate] | 0.408 | 2.03 |  | 
2 | CC(=O)O[C@@H](C)/C=C\C(=O)N[C@@H]1C[C@H](C)[C@H](C/C=C(C)/C=C/[C@H]2O[C@H](CC(=O)Nc3ccc(C(N)=O)cc3)C[C@@]3(CO3)[C@@H]2O)O[C@@H]1C [#B267, (2S,3Z)-5-{[(2R,3R,5S,6S)-6-{(2E,4E)-5-[(3R,4R,5R,7S)-7-{2-[(4-carbamoylphenyl)amino]-2-oxoethyl}-4-hydroxy-1,6-dioxaspiro[2.5]oct-5-yl]-3-methylpenta-2,4-dien-1-yl}-2,5-dimethyltetrahydro-2H-pyran-3-yl]amino}-5-oxopent-3-en-2-yl acetate] | 3.44 | 23.8 |  | 
3 | COC(=O)C[C@@H]1C[C@@]2(CO2)C[C@@H](/C=C/C(C)=C/C[C@@H]2O[C@H](C)[C@H](NC(=O)/C=C\[C@H](C)OC(=O)CCCSC)C[C@@H]2C)O1 [#B149, (2S,3Z)-5-{[(2R,3R,5S,6S)-6-{(2E,4E)-5-[(3S,5S,7S)-7-(2-methoxy-2-oxoethyl)-1,6-dioxaspiro[2.5]oct-5-yl]-3-methylpenta-2,4-dien-1-yl}-2,5-dimethyltetrahydro-2H-pyran-3-yl]amino}-5-oxopent-3-en-2-yl 4-(methylsulfanyl)butanoate] | > 100 | > 100 |  | 
4 | CC(/C=C/[C@@H]1C[C@]2(CO2)C[C@@H](CC(N)=O)O1)=C\C[C@@H]1O[C@H](C)[C@H](NC(=O)/C=C\C(C)N)C[C@@H]1C (stereo partly drawn) [#B272, (2Z)-4-amino-N-[(2R,3R,5S,6S)-6-{(2E,4E)-5-[(3S,5S,7S)-7-(2-amino-2-oxoethyl)-1,6-dioxaspiro[2.5]oct-5-yl]-3-methylpenta-2,4-dien-1-yl}-2,5-dimethyltetrahydro-2H-pyran-3-yl]pent-2-enamide] | > 100 | > 100 |  | 
5 | CC(/C=C/[C@@H]1C[C@]2(CO2)C[C@@H](CC(N)=O)O1)=C\C[C@@H]1O[C@H](C)[C@H](NC(=O)/C=C/C(C)N)C[C@@H]1C (stereo partly drawn) [#B271, (2E)-4-amino-N-[(2R,3R,5S,6S)-6-{(2E,4E)-5-[(3S,5S,7S)-7-(2-amino-2-oxoethyl)-1,6-dioxaspiro[2.5]oct-5-yl]-3-methylpenta-2,4-dien-1-yl}-2,5-dimethyltetrahydro-2H-pyran-3-yl]pent-2-enamide] |  |  | > 100 | > 100
6 | CC(=O)O[C@@H](C)/C=C\C(=O)N[C@@H]1C[C@H](C)[C@H](C/C=C(C)/C=C/[C@H]2O[C@H](CC(=O)N[C@H]3C[C@@H](O)C3)C[C@@]3(CO3)[C@@H]2O)O[C@@H]1C [#B142, (2S,3Z)-5-{[(2R,3R,5S,6S)-6-{(2E,4E)-5-[(3R,4R,5R,7S)-4-hydroxy-7-{2-[(cis-3-hydroxycyclobutyl)amino]-2-oxoethyl}-1,6-dioxaspiro[2.5]oct-5-yl]-3-methylpenta-2,4-dien-1-yl}-2,5-dimethyltetrahydro-2H-pyran-3-yl]amino}-5-oxopent-3-en-2-yl acetate] | 11.2 | 55.5 |  | 
7 | CCCNC(=O)NC[C@@H]1C[C@@]2(CO2)[C@H](O)[C@@H](/C=C/C(C)=C/C[C@@H]2O[C@H](C)[C@H](NC(=O)/C=C\[C@H](C)OC(C)=O)C[C@@H]2C)O1 [#B242, (2S,3Z)-5-{[(2R,3R,5S,6S)-6-{(2E,4E)-5-[(3R,4R,5R,7S)-4-hydroxy-7-{[(propylcarbamoyl)amino]methyl}-1,6-dioxaspiro[2.5]oct-5-yl]-3-methylpenta-2,4-dien-1-yl}-2,5-dimethyltetrahydro-2H-pyran-3-yl]amino}-5-oxopent-3-en-2-yl acetate] | 0.57 | 3.76 |  | 
8 | COC(=O)C[C@@H]1C[C@@]2(CO2)[C@H](OC)[C@@H](/C=C/C(C)=C/C[C@@H]2O[C@H](C)[C@H](NC(=O)/C=C\[C@H](C)OC)C[C@@H]2C)O1 [#B240, methyl [(3R,5S,7R,8R)-8-methoxy-7-{(1E,3E)-5-[(2S,3S,5R,6R)-5-{[(2Z,4S)-4-methoxypent-2-enoyl]amino}-3,6-dimethyltetrahydro-2H-pyran-2-yl]-3-methylpenta-1,3-dien-1-yl}-1,6-dioxaspiro[2.5]oct-5-yl]acetate] | 9.79 | 5.05 |  | 
9 | CCCNC(=O)C[C@@H]1C[C@@](O)(CCl)[C@H](O)[C@@H](/C=C/C(C)=C/C[C@@H]2O[C@H](C)[C@H](NC(=O)/C=C\[C@H](C)OC(C)=O)C[C@@H]2C)O1 [#B286, (1S,5R)-5-{(1E,3E)-5-[(2S,3S,5R,6R)-5-{[(2Z,4S)-4-(acetyloxy)pent-2-enoyl]amino}-3,6-dimethyltetrahydro-2H-pyran-2-yl]-3-methylpenta-1,3-dien-1-yl}-1,5-anhydro-3-C-(chloromethyl)-2-deoxy-1-[2-oxo-2-(propylamino)ethyl]-D-erythro-pentitol] | 0.387 | 1.11 |  | 
10 | CNNC(=O)C[C@@H]1C[C@@]2(CO2)[C@H](O)[C@@H](/C=C/C(C)=C/C[C@@H]2O[C@H](C)[C@H](NC(=O)/C=C\[C@H](C)OC(C)=O)C[C@@H]2C)O1 [#B143, (2S,3Z)-5-({(2R,3R,5S,6S)-6-[(2E,4E)-5-{(3R,4R,5R,7S)-4-hydroxy-7-[2-(2-methylhydrazinyl)-2-oxoethyl]-1,6-dioxaspiro[2.5]oct-5-yl}-3-methylpenta-2,4-dien-1-yl]-2,5-dimethyltetrahydro-2H-pyran-3-yl}amino)-5-oxopent-3-en-2-yl acetate] | 2.43 | 9.51 |  | 
11 | CC(=O)O[C@@H](C)/C=C\C(=O)N[C@@H]1C[C@H](C)[C@H](C/C=C(C)/C=C/[C@H]2O[C@H](CC(=O)NN(C)C)C[C@@]3(CO3)[C@@H]2O)O[C@@H]1C [#B177, (2S,3Z)-5-({(2R,3R,5S,6S)-6-[(2E,4E)-5-{(3R,4R,5R,7S)-7-[2-(2,2-dimethylhydrazinyl)-2-oxoethyl]-4-hydroxy-1,6-dioxaspiro[2.5]oct-5-yl}-3-methylpenta-2,4-dien-1-yl]-2,5-dimethyltetrahydro-2H-pyran-3-yl}amino)-5-oxopent-3-en-2-yl acetate] | 1.61 | 5.65 |  | 
12 | CC(=O)O[C@@H](C)/C=C\C(=O)N[C@@H]1C[C@H](C)[C@H](C/C=C(C)/C=C/[C@H]2O[C@H](CNC(N)=O)C[C@@]3(CO3)[C@@H]2O)O[C@@H]1C [#B241, (2S,3Z)-5-({(2R,3R,5S,6S)-6-[(2E,4E)-5-{(3R,4R,5R,7S)-7-[(carbamoylamino)methyl]-4-hydroxy-1,6-dioxaspiro[2.5]oct-5-yl}-3-methylpenta-2,4-dien-1-yl]-2,5-dimethyltetrahydro-2H-pyran-3-yl}amino)-5-oxopent-3-en-2-yl acetate] | 21.3 | 43.6 |  | 
13 | CC(=O)O[C@@H](C)/C=C\C(=O)N[C@@H]1C[C@H](C)[C@H](C/C=C(C)/C=C/[C@H]2O[C@H](CC(=O)NCc3ccc(C(N)=O)cc3)C[C@@]3(CO3)[C@@H]2O)O[C@@H]1C [#B266, (2S,3Z)-5-{[(2R,3R,5S,6S)-6-{(2E,4E)-5-[(3R,4R,5R,7S)-7-{2-[(4-carbamoylbenzyl)amino]-2-oxoethyl}-4-hydroxy-1,6-dioxaspiro[2.5]oct-5-yl]-3-methylpenta-2,4-dien-1-yl}-2,5-dimethyltetrahydro-2H-pyran-3-yl]amino}-5-oxopent-3-en-2-yl acetate] | 28.4 | > 100 |  | 
14 | CCCNC(=O)C[C@]1(O)C[C@@]2(CO2)[C@H](O)[C@@H](/C=C/C(C)=C/C[C@@H]2O[C@H](C)[C@H](NC(=O)/C=C\[C@H](C)OC(C)=O)C[C@@H]2C)O1 [#B275, (2S,3Z)-5-({(2R,3R,5S,6S)-6-[(2E,4E)-5-{(3R,4R,5R,7S)-4,7-dihydroxy-7-[2-oxo-2-(propylamino)ethyl]-1,6-dioxaspiro[2.5]oct-5-yl}-3-methylpenta-2,4-dien-1-yl]-2,5-dimethyltetrahydro-2H-pyran-3-yl}amino)-5-oxopent-3-en-2-yl acetate] | 5.33 | 22.2 |  | 
15 | COC(=O)C[C@@H]1C[C@@]2(CO2)[C@H](OC)[C@@H](/C=C/C(C)=C/C[C@@H]2O[C@H](C)[C@H](NC(=O)/C=C\[C@H](C)OC(C)=O)C[C@@H]2C)O1 [#B265, methyl [(3R,5S,7R,8R)-7-{(1E,3E)-5-[(2S,3S,5R,6R)-5-{[(2Z,4S)-4-(acetyloxy)pent-2-enoyl]amino}-3,6-dimethyltetrahydro-2H-pyran-2-yl]-3-methylpenta-1,3-dien-1-yl}-8-methoxy-1,6-dioxaspiro[2.5]oct-5-yl]acetate] | 10.2 | 8.67 |  | 
16 | CC(=O)O[C@@H](C)/C=C\C(=O)N[C@@H]1C[C@H](C)[C@H](C/C=C(C)/C=C/[C@H]2O[C@H](CC(=O)N(C)N)C[C@@]3(CO3)[C@@H]2O)O[C@@H]1C [#B144, (2S,3Z)-5-({(2R,3R,5S,6S)-6-[(2E,4E)-5-{(3R,4R,5R,7S)-4-hydroxy-7-[2-(1-methylhydrazinyl)-2-oxoethyl]-1,6-dioxaspiro[2.5]oct-5-yl}-3-methylpenta-2,4-dien-1-yl]-2,5-dimethyltetrahydro-2H-pyran-3-yl}amino)-5-oxopent-3-en-2-yl acetate] | 0.982 | 6.1 |  | 
